Experimental data taken from patent US4228285A, “14-Hydroxy-6-oxamorphinans and 14-hydroxy-6-oxaisomorphinans” (priority 1979, dated 1980).
Where two headings read alike, the source gives them in different places.

Legend:
[1] = format: in vivo; conditions: for agonist potency relative to butorphanol / agonist potency relative to morphine sulfate: mice; for agonist potency relative to butorphanol: vs butorphanol; for agonist potency relative to morphine sulfate: vs morphine sulfate
[2] = format: in vivo; conditions: subcutaneous
[3] = morphine antagonist rat tail flick test; format: in vivo; conditions: subcutaneous; for ED50: sc
Text: (§1) Table 2 compares the oxymorphone and morphine antagonist activity of two of the preferred embodiments of this invention with the antagonist activity of butorphanol, in the standard oxymorphone-induced Straub tail test and the morphine antagonist rat tail flick test. In the Straub tail test, subcutaneously, BL-5951 and BL-5961 were about 5 times and about 1.6 times, respectively, as potent as butorphanol. Orally, they were about 55 times and about 1.7 times, respectively, as potent as butorphanol.

[4] = oxymorphone-induced Straub tail test (oxymorphone antagonist activity); format: in vivo; conditions: for antagonist potency relative to butorphanol, Straub tail test: vs butorphanol
Text: as §1

[5] = oral, read-out: Antagonist Activity ED50, Oxymorphone-induced Straub Tail, PO
[6] = sc, subcutaneous, read-out: Antagonist Activity ED50, Oxymorphone-induced Straub Tail, SC

Row | Compound | agonist potency relative to butorphanol ([1]; subcutaneous) | agonist potency relative to morphine sulfate ([1]; subcutaneous) | Agonist Activity ED50, Mice (SC) ([1]; subcutaneous) [mg/kg] | agonist potency relative to butorphanol ([1]; oral) | agonist potency relative to morphine sulfate ([1]; oral) | Agonist Activity ED50, Mice (PO) ([1]; oral) [mg/kg] | agonist potency relative to butorphanol ([2]; rats, vs butorphanol) | agonist potency relative to morphine sulfate ([2]; rats, vs morphine sulfate) | Agonist Activity ED50, Rats (SC) [2] [mg/kg] | ED50 [3] [mg/kg] | antagonist potency relative to butorphanol, rat tail flick test (in words) ([3]; vs butorphanol) | antagonist potency relative to butorphanol, Straub tail test ([4]; oral) | ED50 [4, 5] [mg/kg] | ED50 [4, 6] [mg/kg] | antagonist potency relative to butorphanol, Straub tail test ([4]; subcutaneous) | antagonist potency relative to butorphanol, rat tail flick test ([3]; vs butorphanol)
1 | CN1CC[C@]23COC(C)(C)C[C@@]2(O)[C@H]1Cc1ccc(O)cc13 (racemic) [BL-6021, 3,14β-Dihydroxy-7,7,17-trimethyl-6-oxamorphinan] | about 1.4 times | about 7 times | 0.037 | – | – | – | – | – | – | – | – | – | – | – | – | –
2 | Oc1ccc2c(c1)[C@]13CCN(CC4CCC4)[C@H](C2)[C@]1(O)CCOC3 (racemic) [BL-5961, 17-Cyclobutylmethyl-3,14β-dihydroxy-6-oxamorphinan] | about 1.4 times | about 7 times | 0.037 | about 2.5 times | about 1.4 times | 2.2 | about equipotent | about 4 times | 0.041 | ~0.4 | about equipotent | about 1.7 times | ~32 | 0.61 | about 1.6 times | –
3 | Oc1ccc2c(c1)[C@]13CCN(CC4CC4)[C@H](C2)[C@]1(O)CCOC3 (racemic) [BL-5951, 17-Cyclopropylmethyl-3,14β-dihydroxy-6-oxamorphinan] | – | – | – | – | – | – | – | – | – | ~0.09 | – | about 55 times | ~1 | ~0.2 | about 5 times | about 4.8 times
4 | Oc1ccc2c(c1)[C@@]13CCCC[C@@]1(O)[C@@H](C2)N(CC1CCC1)CC3 [butorphanol, reference compound] | – | – | 0.051 | – | – | 5.6 | – | – | 0.040 | 0.43 | – | – | 55 | 0.98 | – | –
